The record followed here is patent US20090206245A1, “Mass analysis method using fine metal particles” (Shionogi CO., Ltd, priority 2004, published 2009).

In the test the target is β1-4 galactosyltransferase (GalT). Put plainly: Inhibiting activity of UDP against GalT reaction on a sugar chain (GlcNAc)-fine gold particle complex, tracked by MALDI-TOF MS. The format is biochemical. Conditions: GlcNAc-Au 50 μM, UDP-Gal 400 μM, four mU GalT, HEPES buffer (10 mM MnCl2, 0.15 M NaCl), 25° C., 60 minutes; from plot of FIG. 8. How it is done: 100 μL of MHEPES buffer solution (10 mM MnCl2, 0.15 M NaCl) of the sugar chain-fine gold particles (GlcNAc-Au:50 μM) produced in accordance with Example 4 and UDP-Gal (400 μM), was prepared. Four mU of β1-4 galactosyltransferase (GalT) was added to the buffer solution, and the sugar chain elongation reaction was tracked at 25° C. by using MALDI-TOF Mass spectroscopy. The reaction solution was not subjected to centrifugal filtration, but to MALDI-TOF mass spectrometry using 2,5-dihydroxybenzoic acid (DHB) as a matrix (FIG. 6). […] FIG. 7 indicates a plot representing temporal variation in extent of the sugar-chain elongation reaction, which was derived from the spectrum shown in FIG. 6.
100 μL of MHEPES buffer solution (10 mM MnCl2, 0.15 M NaCl) of the sugar chain-fine gold particles (GlcNAc-Au: 50 μM) produced in accordance with Example 4 and UDP-Gal (400 μM), was prepared. Four mU of β1-4 galactosyltransferase (GalT) and UDP (prepared at nine concentration levels in the range of 0-50 μM) was then added to the buffer solution, and the solution was subjected to reaction at 25° C. for 60 minutes.

For the molecule `O=c1ccn([C@@H]2O[C@H](COP(=O)(O)OP(=O)(O)O)[C@@H](O)[C@H]2O)c(=O)[nH]1` [UDP], the IC50 (in general, the concentration needed to halve the response being measured) amounted to 300 µM.
